Reference: publication PMC4506051, “Pharmacokinetic Profiles of Active Ingredients and Its Metabolites Derived from Rikkunshito, a Ghrelin Enhancer, in Healthy Japanese Volunteers: A Cross-Over, Randomized Study” (PLoS ONE, 2015)

Experiments:
[1] = Method validation: stability in blood
[2] = Method validation: post-preparative stability (autosampler); conditions: autosampler set at 4°C
[3] = Method validation: stability in standard, stock and working solution; conditions: for Stock solution stability, RR: 0.1 mg/mL (naringenin 0.5 mg/mL)
[4] = Method validation: short-term stability in plasma
[5] = Randomized crossover quantitative trial: plasma pharmacokinetics of nine ingredients after rikkunshito 2.5, 5.0 or 7.5 g; conditions: for AUC(0-t): AUC0-last; for Cmax: C max
In short: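 Healthy Japanese adults (20–45 y, BMI 18–25), fasted 12 h before and 4 h after dosing, received single oral rikkunshito 2.5, 5.0 or 7.5 g in a randomized open-label three-period crossover. Plasma sampled 0–48 h; ingredients quantified by LC–MS/MS or GC–MS.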

[6] = Method validation: freeze-thaw stability in plasma; conditions: −30°C to −10°C, 3 cycles
[7] = 7.5 g dosage; cited from earlier work
[8] = Method validation: long-term stability in plasma
[9] = Dose proportionality (linearity) test by power model for C max and AUC0-last; conditions: for Dose proportionality test using power model, Inference: linear when 90% CI of β included 1, CIlower ≥0.8, and CIupper ≤1.25; for Dose proportionality test using power model, β: rikkunshito 2.5, 5.0 or 7.5 g
Protocol: The dose proportionality was analyzed via a power model [21, 22]. […] Evaluation of linearity of the dosage-exposure relationship was conducted with Phoenix WinNonlin and SAS 9.2 (SAS Institute, Inc., Cary, NC).

[10] = human, in vivo, po, rikkunshito 2.5 g single oral, n = 21, geometric mean (95% CI)
[11] = human, in vivo, po, rikkunshito 5.0 g single oral, n = 19, geometric mean (95% CI)
[12] = human, in vivo, po, rikkunshito 7.5 g single oral, n = 19, geometric mean (95% CI)

## C=C(CC[C@@H](C(=O)O)[C@H]1[C@H](O)C[C@@]2(C)C3=C(CC[C@]12C)[C@@]1(C)CC[C@H](OC(C)=O)C(C)(C)[C@@H]1CC3)C(C)C [Pachymic acid]
[1]; on ice 2 h, higher concentration (800 / 320 / 4000 pg/mL)
  Stability in blood, RR: 93.4%
[1]; on ice 2 h, lower concentration (20 / 8 / 100 pg/mL)
  Stability in blood, RR: 103.1%
[1]; room temperature 2 h, higher concentration (pachymic acid 800, heptamethoxyflavone 320, naringenin 4000 pg/mL)
  Stability in blood, RR: 91.8%
[1]; room temperature 2 h, lower concentration (pachymic acid 20, heptamethoxyflavone 8, naringenin 100 pg/mL)
  Stability in blood, RR: 103.1%
[2]; 24 h, higher concentration (pachymic acid 800, heptamethoxyflavone 320 pg/mL)
  Post-preparative stability, RR: 88.4%
[2]; 24 h, lower concentration (pachymic acid 20, heptamethoxyflavone 8 pg/mL)
  Post-preparative stability, RR: 92.4%
[2]; 48 h, higher concentration (800 / 320 / 4000 pg/mL)
  Post-preparative stability, RR: 98.2%
[2]; 48 h, lower concentration (20 / 8 / 100 pg/mL)
  Post-preparative stability, RR: 93.8%
[3]; refrigerator 53 days, higher concentration (pachymic acid 10, heptamethoxyflavone 4, naringenin 50 ng/mL)
  Working solution stability, RR: 101.1%
[3]; refrigerator 53 days, lower concentration (pachymic acid 0.1, heptamethoxyflavone 0.04, naringenin 0.5 ng/mL)
  Working solution stability, RR: 109.1%
[3]; refrigerator 128 days, higher concentration (10 / 4 / 50 ng/mL)
  Working solution stability, RR: 113.2%
[3]; refrigerator 128 days, lower concentration (0.1 / 0.04 / 0.5 ng/mL)
  Working solution stability, RR: 102.1%
[3]; refrigerator (1°C to 8°C) 54 days
  Stock solution stability, RR: 54 days: 101.7%
[3]; refrigerator (1°C to 8°C) 129 days
  Stock solution stability, RR: 129 days: 110.1%
[4]; room temperature 25 h, higher concentration (pachymic acid 800, heptamethoxyflavone 320 pg/mL)
  Short-term stability, RR: 93.8%
[4]; room temperature 25 h, lower concentration (pachymic acid 20, heptamethoxyflavone 8 pg/mL)
  Short-term stability, RR: 85.9%
[4]; room temperature (1°C to 30°C) 4 h, higher concentration (800 / 320 / 4000 pg/mL)
  Short-term stability, RR: 95.1%
[4]; room temperature (1°C to 30°C) 4 h, lower concentration (20 / 8 / 100 pg/mL)
  Short-term stability, RR: 95.8%
[5]; all subjects, quantitative trial
  Plasma concentration just before the administration: BQL
[5]; [10]
  AUC(0-t): 0.277 ng·h/mL
  Cmax: 0.0363 ng/mL
[5]; [11]
  AUC(0-t): 0.716 ng·h/mL
  Cmax: 0.0612 ng/mL
[5]; [12]
  AUC(0-t): 1.21 ng·h/mL
  Cmax: 0.091 ng/mL
[5]; human, in vivo, po, Median t max (range), rikkunshito 2.5 g single oral, n = 21, median (minimum–maximum)
  Tmax: 6 h
[5]; human, in vivo, po, Median t max (range), rikkunshito 5.0 g single oral, n = 19, median (minimum–maximum)
  Tmax: 6 h
[5]; human, in vivo, po, Median t max (range), rikkunshito 7.5 g single oral, n = 19, median (minimum–maximum)
  Tmax: > 3 h
[5]; human, in vivo, po, t 1/2, rikkunshito 5.0 g single oral, n = 19, geometric mean (95% CI)
  half-life: 16.2 h
[5]; human, in vivo, t max, after rikkunshito administration, dose not given
  Tmax: 6 h
[5]; rikkunshito 7.5 g single oral, n = 19, geometric mean (95% CI)
  t 1/2: 20.5 (14.4–29.2) h
[5]; rikkunshito 7.5 g single oral, n = 19, geometric mean (95% CI), listed as pachymic acid
  t 1/2: exceeding 10 h
[5]; rikkunshito 7.5 g single oral, n = 19, median (minimum–maximum)
  Median t max (range): 6.00 (2.00–11.5) h
[6]; higher concentration (800 / 320 / 4000 pg/mL)
  Freeze-thaw stability, RR: 114.0%
[6]; lower concentration (20 / 8 / 100 pg/mL)
  Freeze-thaw stability, RR: 108.8%
[7]
  Maximum plasma concentration in the preliminary pharmacokinetics study: 0.228 ± 0.116 ng/mL
[8]; freezer −30°C to −10°C, 13 days, lower concentration (pachymic acid 20, heptamethoxyflavone 8 pg/mL)
  Long-term stability, RR: 110.9%
[8]; freezer, 13 days, higher concentration (pachymic acid 800, heptamethoxyflavone 320 pg/mL)
  Long-term stability, RR: 113.9%
[8]; freezer, 39 days, higher concentration (800 / 320 pg/mL)
  Long-term stability, RR: 107.6%
[8]; freezer, 39 days, lower concentration (20 / 8 pg/mL)
  Long-term stability, RR: 104.1%
[8]; freezer, 228 days, higher concentration (800 / 320 pg/mL)
  Long-term stability, RR: 92.5%
[8]; freezer, 228 days, lower concentration (20 / 8 pg/mL)
  Long-term stability, RR: 89.6%
[9]; AUC0-last
  Dose proportionality test using power model, Inference: Nonlinear
  Dose proportionality test using power model, β: 1.39
[9]; Cmax
  Dose proportionality test using power model, Inference: Nonlinear
  Dose proportionality test using power model, β: 0.856
